Target: CXCR3 (Macaca fascicularis, UniProt A0A2K5UV19)
Assay: functional cellular assay measuring calcium flux in CXCR3 transfected cells (block of CXCR3/IP-10 interaction)
Type: cell-based, Cyno
Conditions: IP-10 induced intracellular calcium flux; Cyno-CHO cells stably expressing recombinant CXCR3 and G-alpha-16; IP-10 at EC80; read-out: IC50
Summary of the method: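 Cyno-CHO cells stably expressing CXCR3 and G-alpha-16, loaded with Ca-4 dye in HBSS/10 mM HEPES pH 7.4 with 2 mM probenecid for 1 h at 37° C. Compound (final 10 microM) preincubated 15 min at room temperature, then IP-10 at EC80 added; calcium flux read at 480/540 nm.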

Chain of CXCR3 (A0A2K5UV19 entry or part of it): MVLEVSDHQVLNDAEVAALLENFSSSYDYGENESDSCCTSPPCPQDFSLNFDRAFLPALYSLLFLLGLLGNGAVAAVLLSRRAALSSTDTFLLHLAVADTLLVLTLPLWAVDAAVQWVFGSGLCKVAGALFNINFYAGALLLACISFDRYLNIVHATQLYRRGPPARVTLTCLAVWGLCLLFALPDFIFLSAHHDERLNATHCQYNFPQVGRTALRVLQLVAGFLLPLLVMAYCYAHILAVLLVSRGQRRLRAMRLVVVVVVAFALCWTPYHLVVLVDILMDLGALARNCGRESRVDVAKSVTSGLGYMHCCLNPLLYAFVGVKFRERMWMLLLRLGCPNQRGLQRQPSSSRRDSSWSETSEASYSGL

Compound | IC50
C[C@@H]1CN(c2ccc(F)cc2C(=O)Nc2nc3c(s2)CN(C)CC3)CCN1C(=O)CN1Cc2ccccc2C1=O [5-fluoro-2-{(3R)-3-methyl-4-[(1-oxo-1,3-dihydro-2H-isoindol-2-yl)acetyl]piperazin-1-yl}-N-(5-methyl-4,5,6,7-tetrahydro[1,3]thiazolo[5,4-c]pyridin-2-yl)benzamide] | 15 nM
O=C(CN1CCCCC1=O)N1CCN(c2ccc(F)cc2-c2cnc(N3CCOCC3)nc2)CC1 [1-[2-(4-{4-fluoro-2-[2-(morpholin-4-yl)pyrimidin-5-yl]phenyl}piperazin-1-yl)-2-oxoethyl]piperidin-2-one] | 30 nM
CCNc1ncc(-c2ccccc2N2CCN(C(=O)Cn3nc(C)cc3C)CC2)cn1 [2-(3,5-Dimethyl-pyrazol-1-yl)-1-{4-[2-(2-ethylamino-pyrimidin-5-yl)-phenyl]-piperazin-1-yl}-ethanone] | 10 nM
C[C@@H]1CN(c2ncc(-c3ccccc3N3CCN(C(=O)Cn4ccc5cccnc54)CC3)cn2)C[C@@H](C)O1 [1-(4-{2-[2-((2R,6R)-2,6-Dimethyl-morpholin-4-yl)-pyrimidin-5-yl]-phenyl}-piperazin-1-yl)-2-pyrrolo[2,3-b]pyridin-1-yl-ethanone] | 7 nM
CC1CN(c2ccccc2-c2cnc(N3CCC(S(C)(=O)=O)CC3)nc2)CCN1C(=O)Cn1ccc2ccncc21 (stereo not drawn) [1-[2-methyl-4-(2-{2-[4-(methylsulfonyl)piperidin-1-yl]pyrimidin-5-yl}phenyl)piperazin-1-yl]-2-(1H-pyrrolo[2,3-c]pyridin-1-yl)ethanone] | 8 nM
Cc1cc(C)n(CC(=O)N2CCN(c3ccc(F)cc3-c3cnc(N4CCC(O)CC4)nc3)CC2)n1 [2-(3,5-dimethyl-1H-pyrazol-1-yl)-1-(4-{4-fluoro-2-[2-(4-hydroxypiperidin-1-yl)pyrimidin-5-yl]phenyl}piperazin-1-yl)ethanone] | 9 nM
O=C(Cn1ccc2cccnc21)N1CCN(c2ccccc2N2Cc3ccccc3C2=O)CC1 [2-{2-[4-(2-Pyrrolo[2,3-b]pyridin-1-yl-acetyl)-piperazin-1-yl]-phenyl}-2,3-dihydro-isoindol-1-one] | 48 nM
O=C(CNc1ccncc1)N1CCN(c2ccccc2-c2cnc(N3CCOCC3)nc2)CC1 [1-{4-[2-(2-Morpholin-4-yl-pyrimidin-5-yl)-phenyl]-piperazin-1-yl}-2-(pyridin-4-ylamino)-ethanone] | 27 nM
C[C@@H]1CN(c2ccc(F)cc2C(=O)Nc2nc3c(s2)CN(C)CC3)CCN1C(=O)CN1CCCCC1=O [5-fluoro-2-{(3R)-3-methyl-4-[(2-oxopiperidin-1-yl)acetyl]piperazin-1-yl}-N-(5-methyl-4,5,6,7-tetrahydro[1,3]thiazolo[5,4-c]pyridin-2-yl)benzamide] | 20 nM
CC1CN(c2ccccc2-c2cnc(N3CCC(O)CC3)nc2)CCN1C(=O)CN1CCCCC1=O (stereo not drawn) [1-[2-(4-{2-[2-(4-hydroxypiperidin-1-yl)pyrimidin-5-yl]phenyl}-2-methylpiperazin-1-yl)-2-oxoethyl]piperidin-2-one] | 19 nM
Cc1cc(C)n(CC(=O)N2CCN(c3ccccc3-c3cnc(N4CCCC(C(N)=O)C4)nc3)CC2)n1 (stereo not drawn) [1-[5-(2-{4-[2-(3,5-Dimethyl-pyrazol-1-yl)-acetyl]-piperazin-1-yl}-phenyl)-pyrimidin-2-yl]-piperidine-3-carboxylic acid amide] | 9 nM
CNC(=O)C1CCN(c2ncc(-c3ccccc3N3CCN(C(=O)Cn4nc(C)cc4C)CC3)cn2)CC1 [1-[5-(2-{4-[2-(3,5-Dimethyl-pyrazol-1-yl)-acetyl]-piperazin-1-yl}-phenyl)-pyrimidin-2-yl]-piperidine-4-carboxylic acid methylamide] | 9 nM
CC(C)C(=O)N(C)CC(=O)N1CCN(c2ccc(F)cc2C(=O)Nc2nc3c(s2)CN(C)CC3)C[C@H]1C [5-fluoro-2-{(3R)-3-methyl-4-[N-methyl-N-(2-methylpropanoyl)glycyl]piperazin-1-yl}-N-(5-methyl-4,5,6,7-tetrahydro[1,3]thiazolo[5,4-c]pyridin-2-yl)benzamide] | 19 nM
COc1ccc(C(=O)NCC(=O)N2CCN(c3ccccc3-c3cnc(N4CCOCC4)nc3)CC2)cc1OC [3,4-Dimethoxy-N-(2-{4-[2-(2-morpholin-4-yl-pyrimidin-5-yl)-phenyl]-piperazin-1-yl}-2-oxo-ethyl)-benzamide] | 68 nM

System: LDL receptor knockout model
Assay: not given
Conditions: dosed prophylactically in a LDL receptor knockout model; cited from earlier work

Compound | atherosclerotic lesion formation
CCOc1ccc(-n2c(C(C)N(Cc3cccnc3)C(=O)Cc3ccc(F)c(C(F)(F)F)c3)nc3ncccc3c2=O)cc1 (stereo not drawn) [NBI-74330] | significantly attenuated atherosclerotic lesion formation

From US8450317B2, “CXCR3 receptor antagonists” (Boehringer Ingelheim International GmbH, priority 2009, dated 2013)
